Assay results from patent publication US12252484B2, “Pyrazolopyridine compounds for the treatment of autoimmune disease” (Hoffmann-La Roche Inc., priority 2018, dated 2025).

Each molecule was assayed against T1, human TLR7 (Homo sapiens, UniProt Q9NYK1) (assay: HEK293-Blue-hTLR-7 cells assay (SEAP reporter, R848 stimulation)). Conditions: HEK293-Blue-hTLR-7 cells, R848 ligand, 20 hrs incubation; read-out: TLR7 IC50.
T1 sequence (Q9NYK1 27-1049): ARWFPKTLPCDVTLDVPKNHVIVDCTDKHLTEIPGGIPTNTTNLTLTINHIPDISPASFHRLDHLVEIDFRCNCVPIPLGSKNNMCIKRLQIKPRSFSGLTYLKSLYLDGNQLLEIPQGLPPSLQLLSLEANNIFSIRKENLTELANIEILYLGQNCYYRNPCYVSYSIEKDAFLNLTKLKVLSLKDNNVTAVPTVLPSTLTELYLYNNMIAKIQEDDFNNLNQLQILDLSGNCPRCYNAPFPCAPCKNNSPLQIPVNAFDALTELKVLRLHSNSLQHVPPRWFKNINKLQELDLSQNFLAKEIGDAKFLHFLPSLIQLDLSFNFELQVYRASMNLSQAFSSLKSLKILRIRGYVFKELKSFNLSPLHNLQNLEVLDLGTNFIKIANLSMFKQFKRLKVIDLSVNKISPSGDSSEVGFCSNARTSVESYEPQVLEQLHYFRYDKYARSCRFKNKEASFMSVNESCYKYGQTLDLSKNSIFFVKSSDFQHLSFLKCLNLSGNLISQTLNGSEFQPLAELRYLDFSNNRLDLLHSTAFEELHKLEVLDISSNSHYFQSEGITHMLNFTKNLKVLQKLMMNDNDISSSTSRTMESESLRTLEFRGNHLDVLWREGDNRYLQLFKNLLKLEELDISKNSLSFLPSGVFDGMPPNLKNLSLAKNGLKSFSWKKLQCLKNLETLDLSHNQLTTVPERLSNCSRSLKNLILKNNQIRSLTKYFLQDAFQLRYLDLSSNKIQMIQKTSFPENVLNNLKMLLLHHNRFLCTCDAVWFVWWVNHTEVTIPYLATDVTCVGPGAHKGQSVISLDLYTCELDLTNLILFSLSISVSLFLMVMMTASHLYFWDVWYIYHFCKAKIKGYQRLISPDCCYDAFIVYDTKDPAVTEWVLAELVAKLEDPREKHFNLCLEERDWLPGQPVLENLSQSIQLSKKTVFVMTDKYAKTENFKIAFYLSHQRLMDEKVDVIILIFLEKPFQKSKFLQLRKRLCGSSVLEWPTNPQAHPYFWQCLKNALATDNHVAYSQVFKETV
Assay type: cell-based
Protocol: The following tests were carried out in order to determine the activity of the compounds of formula (I) in HEK293-Blue-hTLR-7/8/9 cells assay.
HEK293-Blue-hTLR-7 Cells Assay:
A stable HEK293-Blue-hTLR-7 cell line was purchased from InvivoGen (Cat. #: hkb-htlr7, San Diego, California, USA). These cells were originally designed for studying the stimulation of human TLR7 by monitoring the activation of NF-κB. A SEAP (secreted embryonic alkaline phosphatase) reporter gene was placed under the control of the IFN-β minimal promoter fused to five NF-κB and AP-1-binding sites. The SEAP was induced by activating NF-κB and AP-1 via stimulating HEK-Blue hTLR7 cells with TLR7 ligands. Therefore the reporter expression was declined by TLR7 antagonist under the stimulation of a ligand, such as R848 (Resiquimod), for incubation of 20 hrs. The cell culture supernatant SEAP reporter activity was determined using QUANTI-Blue™ kit (Cat. #: rep-qb1, Invivogen, San Diego, Ca, USA) at a wavelength of 640 nm, a detection medium that turns purple or blue in the presence of alkaline phosphatase.
HEK293-Blue-hTLR7 cells were incubated at a density of 250,000˜450,000 cells/mL in a volume of 170 μL in a 96-well plate in Dulbecco's Modified Eagle's medium (DMEM) containing 4.5 g/L glucose, 50 U/mL penicillin, […], […], 2 mM L-glutamine, 10% (v/v) heat-inactivated fetal bovine serum with addition of 20 μL test compound in a serial dilution in the presence of final DMSO at 1% and 10 μL of 20 uM R848 in above DMEM, perform incubation under 37° C. in a CO2 incubator for 20 hrs. Then 20 μL of the supernatant from each well was incubated with 180 μL Quanti-blue substrate solution at 37° C. for 2 hrs and the absorbance was read at 620˜655 nm using a spectrophotometer. The signalling pathway that TLR7 activation leads to downstream NF-κB activation has been widely accepted, and therefore similar reporter assay was modified for evaluating TLR7 antagonist.

IC50 [nM]	Structure (SMILES)
31	C[C@@H]1CN(c2ccc(C#N)n3nccc23)C[C@H](C(=O)NC2CN(C)CC23CC3)O1 (stereo partly drawn) [Example 32, (2R,6R)-4-(7-cyanopyrazolo[1,5-a]pyridin-4-yl)-6-methyl-N-(5-methyl-5-azaspiro[2.4]heptan-7-yl)morpholine-2-carboxamide]
12	C[C@@H]1CN(c2ccc(C#N)n3nccc23)C[C@H](C(=O)Nc2ccc(C(=O)N3CCNCC3)cc2)O1 [Example 42, (2R,6R)-4-(7-cyanopyrazolo[1,5-a]pyridin-4-yl)-6-methyl-N-[4-(piperazine-1-carbonyl)phenyl]morpholine-2-carboxamide]
150	C[C@@H]1CN(c2ccc(C#N)n3nccc23)C[C@H](C(=O)NC2CCNC2)O1 (stereo partly drawn) [Example 25, (2R,6R)-4-(7-cyanopyrazolo[1,5-a]pyridin-4-yl)-6-methyl-N-pyrrolidin-3-yl-morpholine-2-carboxamide]
10	C[C@@H]1CN(c2ccc(C#N)n3nccc23)C[C@H](C(=O)NC2CC3CCC2CN3C)O1 (stereo partly drawn) [Example 34, (2R,6R)-4-(7-cyanopyrazolo[1,5-a]pyridin-4-yl)-6-methyl-N-(2-methyl-2-azabicyclo[2.2.2]octan-5-yl)morpholine-2-carboxamide]
490	CCC(O)CNC(=O)[C@H]1CN(c2ccc(C#N)n3nccc23)C[C@@H](C)O1 (stereo partly drawn) [Example 13, (2R,6R)-4-(7-cyanopyrazolo[1,5-a]pyridin-4-yl)-N-(2-hydroxybutyl)-6-methyl-morpholine-2-carboxamide]
43	C[C@@H]1CN(c2ccc(C#N)n3nccc23)C[C@H](C(=O)NC2CCNCC2)O1 [Example 24, (2R,6R)-4-(7-cyanopyrazolo[1,5-a]pyridin-4-yl)-6-methyl-N-(4-piperidyl)morpholine-2-carboxamide]
28	C[C@@H]1CN(c2ccc(Cl)n3nccc23)C[C@H](C(=O)NC2CCN(C)CC2)O1 [Example 38, (2R,6R)-4-(7-chloropyrazolo[1,5-a]pyridin-4-yl)-6-methyl-N-(1-methyl-4-piperidyl)morpholine-2-carboxamide]
220	C[C@@H]1CN(c2ccc(C#N)n3nccc23)C[C@H](C(=O)NC23CC(CO)(C2)C3)O1 [Example 15, (2R,6R)-4-(7-cyanopyrazolo[1,5-a]pyridin-4-yl)-N-[3-(hydroxymethyl)-1-bicyclo[1.1.1]pentanyl]-6-methyl-morpholine-2-carboxamide]
67	C[C@@H]1CN(c2ccc(C#N)n3nccc23)C[C@H](C(=O)NCC2CN(C)CCO2)O1 (stereo partly drawn) [Example 7, (2R,6R)-4-(7-cyanopyrazolo[1,5-a]pyridin-4-yl)-6-methyl-N-[(4-methylmorpholin-2-yl)methyl]morpholine-2-carboxamide]
16	C[C@@H]1CN(c2ccc(C#N)n3nccc23)C[C@H](C(=O)NC2CCCNCC2)O1 (stereo partly drawn) [Example 6, (2R,6R)-N-(azepan-4-yl)-4-(7-cyanopyrazolo[1,5-a]pyridin-4-yl)-6-methyl-morpholine-2-carboxamide]
420	C[C@@H]1CN(c2ccc(C#N)n3nccc23)C[C@H](C(=O)N[C@H]2CC[C@H](O)CC2)O1 [Example 21, Trans-(2R,6R)-4-(7-cyanopyrazolo[1,5-a]pyridin-4-yl)-N-(4-hydroxycyclohexyl)-6-methyl-morpholine-2-carboxamide]
210	C[C@@H]1CN(c2ccc(C#N)n3nccc23)C[C@H](C(=O)NC23CC4CC(CC(C4)C2)C3)O1 [Example 12, (2R,6R)-N-(1-adamantyl)-4-(7-cyanopyrazolo[1,5-a]pyridin-4-yl)-6-methyl-morpholine-2-carboxamide]
210	C[C@@H]1CN(c2ccc(C#N)n3nccc23)C[C@H](C(=O)NCC2CCNC2)O1 (stereo partly drawn) [Example 40, (2R,6R)-4-(7-cyanopyrazolo[1,5-a]pyridin-4-yl)-6-methyl-N-(pyrrolidin-3-ylmethyl)morpholine-2-carboxamide]
